This is an account of results in patent publication US10065948B2, “Histone deacetylase inhibitors and compositions and methods of use thereof” (CHDI Foundation, Inc., priority 2014, dated 2018).

pIC50: −log10 of the molar value.

Test [1] has as its system cellular histone deacetylase enzymatic activity in Jurkat E6-1 cells. The experiment in a line: Inhibition of cellular HDAC activity, Boc-Lys(Tfa)-AMC substrate (Cell Lys-TFA). The test is classed as cell-based. The settings on record: Homo sapiens, Jurkat E6.1, Lys-TFA substrate. Here is the method:
The potency of the compounds is quantified by measuring the cellular histone deacetylase enzymatic activity using the fluorogenic substrate, Boc-Lys(Tfa)-AMC. After penetration in Jurkat E6-1 cells, the substrate is deacetylated to Boc-Lys-AMC. After cell lysis and cleavage by trypsin, the fluorophore AMC is released from the deacetylated substrate only. The fluorescence of the sample is directly related to the histone deacetylase activity in the sample.
Jurkat E6.1 cells are cultured according to standard cell culture protocols in Jurkat E6.1 Growth Media (RPMI without phenol red, 10% FBS, 10 mM HEPES, and 1 mM Sodium Pyruvate). Jurkat E6.1 cells are counted using a Coulter Counter and resuspended in Jurkat E6.1 growth media at a concentration of 75,000 cells/35 μL. 35 μL or 75,000 cells is seeded into Greiner microtitre assay plates. The plates are then incubated at 37° C. and 5% CO2 while other assay components are being prepared.
Stocks of 70 μL aliquots of the 10 mM compound in DMSO are prepared and stored at −20° C. From one stock aliquot of each compound to be tested and the reference compound, a 16-point serial dilution is prepared according to Table 1 using a 125 μL 16-channel Matrix multi-channel pipette.
2 μL (200×) of each diluted solution and each control (full activity: 100% DMSO alone or full inhibition 1 mM) is stamped into V-bottom polypropylene 384-well compound plates using either the Bravo, Janus, or 12.5 μL 16-channel Matrix multi-channel pipette. Each well with the 200× compound solution is diluted 1:20 by the addition of 38 μL Jurkat assay buffer+DMSO (9.5% DMSO, RPMI without phenol red, 0.09% FBS, 9 mM Hepes, and 0.9 mM Sodium Pyruvate equilibrated to room temperature)
5× (500 μM) substrate is prepared just prior to the addition to the assay. The 5× substrate is prepared by diluting a 100 mM Boc-Lys(Tfa)-AMC in DMSO solution 1:200 by adding it drop-wise to Jurkat assay medium (RPMI without phenol red, 0.1% FBS, 10 mM Hepes, and 1 mM Sodium Pyruvate equilibrated to 37° C.) while vortexing at slow speed to prevent precipitation.
10 mL of 3× lysis buffer is prepared with 8.8 ml of 3× stock lysis buffer (50 mM Tris-HCl, pH 8.0, 137 mM NaCl, 2.7 mM KCl, 1 mM MgCl2, 1% Nonidet P40 Substitute equilibrated to room temperature) and 1.2 mL of 3 mg/mL Trypsin equilibrated to room temperature.
5 μL of each solution of 1:20 diluted compound from above is transferred to the Greiner microtitre assay plates with 75,000 cells/well using the Bravo. Cells are then incubated for 2 hours at 37° C. and 5% CO2. […] The cells are then incubated for 3 hours at 37° C. and 5% CO2. Next, 25 μL of 3× lysis buffer is added to each well using either the 125 μL 16 channel pipette or the Bravo. The assay plate is then incubated overnight (15-16 hours) at 37° C. and 5% CO2. The following day, the plates are shaken on an orbital shaker for 1 minute at 900 rpm. Finally the top read fluorescence (Excitation: 355 nm, Emission: 460 nm) is measured using PerkinElmer EnVision.

The test system of test [2] is cellular histone deacetylase activity (Lys-Ac). In words: Inhibition of cellular HDAC activity (Cell Lys-Ac). The test is classed as cell-based. The conditions noted are these: Lys-Ac substrate.
For test [3], the target named is Histone Deacetylase 4 (HDAC4) catalytic domain (Homo sapiens (Human), UniProt P56524). The experiment in a line: Biochemical HDAC inhibition assay, fluorogenic substrate Boc-Lys(Tfa)-AMC. The method, then: The potency of compounds is quantified by measuring the Histone Deacetylase 4 (HDAC4) catalytic domain enzymatic activity using the fluorogenic substrate, Boc-Lys(Tfa)-AMC. The substrate is deacetylated to Boc-Lys-AMC by HDAC4. Cleavage by trypsin results in the release of the fluorophore AMC from the deacetylated substrate. The fluorescence of the sample is directly related to the histone deacetylase activity in the sample.
Stocks of 60 μL aliquots of the 10 mM compound in DMSO are prepared and stored at −20° C. From one stock aliquot of each compound to be tested and the reference compound, a 16-point serial dilution is prepared according to Table 1 using a 125 μL 16-channel Matrix multi-channel pipette (Matrix Technologies Ltd).
2 μL (200×) of each diluted solution and each control (full activity: 100% DMSO alone or full inhibition 1 mM) is stamped into V-bottomed polypropylene 384-well compound plates using either the Bravo (384-well head from Agilent) or 12.5 μL 16-channel Matrix multi-channel pipette (Matrix Technologies Ltd). Each well with the 200× compound solution is diluted 1:20 by the addition of 38 μL assay buffer+DMSO (10.5% DMSO, 45 mM Tris-HCl, 123 mM NaCl, 2.4 mM KCl, and 0.9 mM MgCl2 at pH 8.0 and equilibrated to room temperature).
The HDAC4 catalytic domain enzyme is human catalytic domain HDAC4 protein (amino acids 648-1032) with a C-terminal 6× histidine tag, produced by BioFocus. A working solution of enzyme is prepared from a 500 μg/mL stock aliquot of HDAC4 catalytic domain (thawed on ice) diluted to 0.2 μg/mL with assay buffer (50 mM Tris-HCl, 137 mM NaCl, 2.7 mM KCl, and 1 mM MgCl2 at pH 8 and equilibrated to room temperature) just prior to the addition of the enzyme to the assay.
5× (50 μM) substrate is prepared just prior to the addition to the assay. A 1 mM substrate stock is made by diluting a 100 mM Boc-Lys(Tfa)-AMC in DMSO solution 1:100 by adding it drop-wise to assay buffer (equilibrated to room temperature) while vortexing at slow speed to prevent precipitation. The 5× substrate is prepared by diluting the 1 mM substrate solution 1:20 by adding it drop-wise to assay buffer (equilibrated to room temperature) while vortexing at slow speed to prevent precipitation.
3× (30 μM) Developer/Stop Solution is prepared just prior to addition to the plate by diluting a stock solution of 10 mM reference compound 1:333 in 25 mg/mL trypsin (PAA Laboratories Ltd.) equilibrated to room temperature.
5 μL of each solution of 1:20 diluted compound from above is transferred to a clear bottomed, black, 384-well assay plate using the Bravo or the Janus (384-well MDT head from Perkin Elmer). Using a 16-channel Matrix multi-channel pipette, 35 μL of the working solution of HDAC4 catalytic domain enzyme (0.2 μg/mL in assay buffer) is transferred to the assay plate. […] The assay plate is then shaken for two minutes on an orbital shaker at 900 rpm (rotations per minute). Next the plate is incubated for 15 minutes at 37° C. The reaction is stopped by adding 25 μL of 3× (30 μM) developer/stop solution to the assay plates using either the Bravo, Janus or a 16-channel Matrix multi-channel pipette. Assay plates are then shaken for 5 minutes on an orbital shaker at 1200 rpm. Next, the assay plates are incubated at 37° C. for 1 hour in a tissue culture incubator. Finally, the fluorescence is measured (Excitation: 355 nm, Emission: 460 nm) using PerkinElmer EnVision in top read mode.

Chain of Histone Deacetylase 4 (HDAC4) catalytic domain (P56524 648-1032): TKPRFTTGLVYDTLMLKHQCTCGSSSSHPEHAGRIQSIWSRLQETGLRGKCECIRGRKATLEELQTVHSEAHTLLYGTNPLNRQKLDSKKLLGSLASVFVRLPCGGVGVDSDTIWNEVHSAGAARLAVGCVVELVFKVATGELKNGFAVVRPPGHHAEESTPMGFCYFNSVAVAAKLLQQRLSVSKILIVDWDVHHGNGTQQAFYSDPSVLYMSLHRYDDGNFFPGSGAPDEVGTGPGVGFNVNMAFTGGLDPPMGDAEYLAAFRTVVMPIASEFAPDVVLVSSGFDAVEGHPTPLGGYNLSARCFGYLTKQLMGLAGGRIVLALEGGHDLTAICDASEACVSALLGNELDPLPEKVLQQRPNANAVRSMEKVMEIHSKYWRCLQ

`Cc1c(F)cccc1[C@]1(C(=O)NO)Cc2cn(-c3ncccc3Cl)nc2C1` [Example 28, (S)-2-(3-Chloropyridin-2-yl)-5-(3-fluoro-2-methylphenyl)-N-hydroxy-2,4,5,6-tetrahydrocyclopenta[c]pyrazole-5-carboxamide]: the negative-log IC50 (pIC50) in test [1] was 7.16; in test [2], less than 4.30; in test [3], 7.19.

Regarding `Cc1c(F)cccc1[C@]1(C(=O)NO)Cc2cnc(C(F)(F)F)nc2C1` [Example 56, (S)-6-(3-Fluoro-2-methylphenyl)-N-hydroxy-2-(trifluoromethyl)-6,7-dihydro-5H-cyclopenta[d]pyrimidine-6-carboxamide], the pIC50 in test [1] was 5.74; in test [2], less than 4.30; in test [3] it was 6.06.

As for `Cc1cnccc1-n1ncc2c1C[C@](C(=O)NO)(c1cccc(F)c1C)C2` [Example 26, (S)-5-(3-Fluoro-2-methylphenyl)-N-hydroxy-1-(3-methylpyridin-4-yl)-1,4,5,6-tetrahydrocyclopenta[c]pyrazole-5-carboxamide], the pIC50 in test [1] was 7.15; in test [2] it was less than 4.30; in test [3] it was 7.24.

For the molecule `Cc1c(F)cccc1C1(C(=O)NO)CCc2nc(C3CC3)ncc2C1` (stereo not shown) [Example 46, 2-Cyclopropyl-6-(3-fluoro-2-methylphenyl)-N-hydroxy-5,6,7,8-tetrahydroquinazoline-6-carboxamide], the pIC50 in test [1] was 6.12; in test [2], less than 4.30; in test [3], 5.80.

In the case of `Cc1ccccc1-c1nc2c(s1)[C@](C(=O)NO)(c1cccc(F)c1C)CC2` [Example 73, (S)-6-(3-Fluoro-2-methylphenyl)-N-hydroxy-2-(o-tolyl)-5,6-dihydro-4H-cyclopenta[d]thiazole-6-carboxamide], the pIC50 in test [1] is 6.20; in test [2], less than 4.30; in test [3] it was 6.84.

Regarding `Cc1c(F)cccc1[C@]1(C(=O)NO)Cc2cnn(C(C)C)c2C1` [Example 53, (S)-5-(3-Fluoro-2-methylphenyl)-N-hydroxy-1-isopropyl-1,4,5,6-tetrahydrocyclopenta[c]pyrazole-5-carboxamide], the pIC50 in test [1] is 6.64; in test [2], less than 4.30; in test [3] it was 7.17.

For the molecule `Cc1c(F)cccc1C1(C(=O)NO)CCc2nc(C3CC3)sc2C1` (stereo not shown) [Example 42, 2-Cyclopropyl-6-(3-fluoro-2-methylphenyl)-N-hydroxy-4,5,6,7-tetrahydrobenzo[d]thiazole-6-carboxamide], the pIC50 in test [1] is 6.49; in test [2], less than 4.30; in test [3], 6.11.

For the molecule `Cc1c(F)cccc1C1(C(=O)NO)CCc2cn(CC(F)(F)F)nc2CC1` (single isomer, unassigned) [Example 84, E1-(abs)-6-(3-Fluoro-2-methylphenyl)-N-hydroxy-2-(2,2,2-trifluoroethyl)-2,4,5,6,7,8-hexahydrocyclohepta[c]pyrazole-6-carboxamide], the pIC50 in test [1] was 5.85; in test [2] it was less than 4.30; in test [3], 6.32.

`Cc1cccc(C)c1-n1ncc2c1C[C@](C(=O)NO)(c1cccc(F)c1C)C2` [Example 13, (S)-1-(2,6-Dimethylphenyl)-5-(3-fluoro-2-methylphenyl)-N-hydroxy-1,4,5,6-tetrahydrocyclopenta[c]pyrazole-5-carboxamide]: the pIC50 is 7.92 in test [1], less than 4.30 in test [2] and 7.57 in test [3].

For the molecule `Cc1c(F)cccc1[C@]1(C(=O)NO)Cc2cnn(-c3ccccc3)c2C1` [Example 1, (S)-5-(3-Fluoro-2-methylphenyl)-N-hydroxy-1-phenyl-1,4,5,6-tetrahydrocyclopenta[c]pyrazole-5-carboxamide], the pIC50 in test [1] is 7.23; in test [2], less than 4.30; in test [3], 7.55.

Take `Cc1cc(F)ccc1-n1ncc2c1C[C@](C(=O)NO)(c1cccc(F)c1C)C2` [Example 22, (S)-5-(3-Fluoro-2-methylphenyl)-1-(4-fluoro-2-methylphenyl)-N-hydroxy-1,4,5,6-tetrahydrocyclopenta[c]pyrazole-5-carboxamide]: the pIC50 in test [1] is 7.96; in test [2], less than 4.30.

With `Cc1ccccc1-n1ncc2c1C[C@](C(=O)NO)(c1cccc(F)c1C)C2` [Example 2, (S)-5-(3-Fluoro-2-methylphenyl)-N-hydroxy-1-(o-tolyl)-1,4,5,6-tetrahydrocyclopenta[c]pyrazole-5-carboxamide], the pIC50 in test [1] is 7.85; in test [2], less than 4.30.

As for `O=C(NO)[C@]1(c2ccccc2)CCc2ccccc21` [Example 87, E1-(abs)-N-Hydroxy-1-phenyl-2,3-dihydro-1H-indene-1-carboxamide], the pIC50 is 4.34 in test [1] and less than 4.30 in test [2].

Consider `Cc1c(F)cccc1[C@]1(C(=O)NO)Cc2cnc(-c3cccnc3)nc2C1` [Example 60, (S)-6-(3-Fluoro-2-methylphenyl)-N-hydroxy-2-(pyridin-3-yl)-6,7-dihydro-5H-cyclopenta[d]pyrimidine-6-carboxamide], for which the pIC50 is 6.70 in test [1] and less than 4.30 in test [2].

Regarding `Cc1c(F)cccc1[C@]1(C(=O)NO)CCc2c1cnn2-c1ccccc1` [Example 54, (R)-4-(3-Fluoro-2-methylphenyl)-N-hydroxy-1-phenyl-1,4,5,6-tetrahydrocyclopenta[c]pyrazole-4-carboxamide], the pIC50 in test [1] is 6.49; in test [2] it was less than 4.30.

By pIC50 is commonly meant the IC50 on a negative log10 scale, so that one unit is a factor of ten.
